Key:
[1] = system: patients with Alzheimer's disease; conditions: cited from earlier work; for Effects on Cognitive Function: cognitive decline in Alzheimer's disease
[2] = system: aged ovariectomized rats; experiment: Radial arm maze test, Example 2 (chronic estrogen-deficient aged rats); assay type: in vivo
Description: Thirty-six retired breeder female rats (8-10 months old) were purchased from Harlan Sprague Dawley, Inc. The rats were housed in separate cages and were initially maintained on a 12:12 hour light/dark cycle with access to Chow diet and water ad libitum. All procedures done on the animals were approved by the Animal Care and Use Committee of Wake Forest University. After bilateral ovariectomy, the rats were fed with a casein/lactalbumin-based control diet for about 12 months (until about 2 years of age). The rats were then evaluated in a 8-arm radial arm maze to determine their baseline working memory. […] The rats were tested in the maze at 1 and 3 months after the initiation of the treatments.
After 3 months of treatment, each of the 3 groups were divided randomly into two subgroups. One subgroup was given Hup A orally (0.3 mg/Kg of body weight) in addition to their control regimen or treatment with SPEs or E2 and the other subgroup received no Hup A. After 3 weeks of Hup A supplementation, working memory was reevaluated.
A pellet of fudge brownie (Little Debbie, Mckee Foods, Collegedale, Tenn.) was placed in each of the 8 food wells located at the end of each arm to serve as a reward. The rats were allowed to explore the maze for 10 min or until all eight rewards were eaten. The training session was terminated when the rats were able to eat all 8 rewards within 10 min.
After the training, the rats were tested once per day 4 consecutive days per week for two weeks. One day prior to the test, and during the first three test days, the food intake was reduced to 25% of the normal 40 g/day food intake. A visit to an arm was recorded if the rat reached three-fourths of the length of the arm. The maze performance was recorded as the number of correct choices in the first 8 visits. A mistake was counted if a rat reentered an arm from which the rat has already eaten the bait. A test session of a rat was terminated when the rat ate all eight rewards or 10 min had elapsed. […]

[3] = in vivo; cited from earlier work
[4] = system: BuChE (blood); conditions: read-out: IC50 BuChE, in vitro; cited from earlier work
[5] = system: patients; conditions: Tacrine 100 mg/day; cited from earlier work
[6] = system: liver; conditions: in vivo; cited from earlier work
[7] = system: ovariectomized retired breeder female rats; experiment: Radial arm maze test, Example 1 (10 months of treatment); assay type: in vivo; conditions: oral in diet, given alone
Description: Eight-four retired breeder females (Sprague-Dawley), weighing 300-360 g (8-10 months old), were purchased from Harlan Sprague Dawley, Inc. The rats were housed in separate cages and were initially maintained on a 12:12 hour light/dark cycle with access to Chow diet and water ad libitum. All procedures done on the animals were approved by the Animal Care and Use Committee of Wake Forest University. Upon arrival, the rats were weighed, and then randomized into the 12 treatment groups using a stratified randomization scheme, stratifying by body weight.
Shown in Table 5 below is the 3×4 factorial study design and includes the number of rats that finished the maze tests. […]
After the training, the rats were tested twice per day (in the morning and afternoon) 4 consecutive days per week for two weeks. […] A visit to an arm was recorded if the rat reached three-fourths of the length of the arm. The maze performance was recorded as the number of correct choices in the first 8 visits. A mistake was counted if a rat reentered an arm from which the rat has already eaten the bait. […]
All data were analyzed using BMDP Statistical Software, version 7.0 (Los Angeles, Calif.). Uterine weights expressed as a percentage of body weight and body weight violated the assumption of equal variances, and were not normally distributed. […] Body weight, uterine weight, and maze data were analyzed by 2-way ANOVA. […]

Molecule: Nc1ccncc1 [4-aminopyridine]
- Effects on Cognitive Function [1]: Unchanged/Slight Improvement

Molecule: COC(=O)C1=CCCN(C)C1 [Arecoline]
- Effects on Cognitive Function [1]: Unchanged/Slight Improvement

Molecule: CC(C[N+](C)(C)C)OC(N)=O (centres unmarked) [Bethanecol]
- Effects on Cognitive Function [1]: Unchanged/Slight Improvement

Molecule: C/C=C1\[C@H]2C=C(C)C[C@]1(N)c1ccc(=O)[nH]c1C2 [Huperzine A, (5R, 9R, 11E)-5-amino-11-ethylidene-5,6,9,10-tetrahydro-7-methyl-5,9-methanocycloocta(b)pyridin2(1H)-one]
- Effects on Cognitive Function [1]: Significant Improvement
- cognitive function (proportion of animals with improved working memory) ([2]; Hup A 0.3 mg/Kg orally for 3 weeks added to E2 treatment): slightly improved
- cognitive function (proportion of animals with improved working memory) ([2]; Hup A 0.3 mg/Kg orally for 3 weeks added to SPE treatment): considerably improved

Molecule: CN1CCCC1c1cccnc1 (centres unmarked) [Nicotine]
- Effects on Cognitive Function [1]: Slight Improvement

Molecule: O=C1CCCN1CC#CCN1CCCC1 [Oxotremorine]
- Effects on Cognitive Function [1]: Unchanged

Molecule: CNC(=O)Oc1ccc2c(c1)[C@]1(C)CCN(C)[C@@H]1N2C [Physostigmine]
- half-life [3]: short half-life

Molecule: CC[C@@H]1C(=O)OC[C@@H]1Cc1cncn1C [Pilocarpine]
- Effects on Cognitive Function [1]: Unchanged

Molecule: Nc1c2c(nc3ccccc13)CCCC2 [Tacrine]
- Effects on Cognitive Function [1]: Unchanged to Significant Improvement
- improving symptoms of Alzheimer's disease ([1]; in vivo): mildly effective
- Abdominal Cramps [5]: 38 Per Cent of Patients
- Diarrhea [5]: 23 Per Cent of Patients
- Dizziness [5]: 12 Per Cent of Patients
- Excessive Sweating [5]: 4 Per Cent of Patients
- Nausea [5]: 25 Per Cent of Patients
- Polyuria [5]: 25 Per Cent of Patients
- Ptyalsim [5]: 10 Per Cent of Patients
- Vomitin [5]: 15 Per Cent of Patients
- liver toxicity [6]: toxic to the liver

Molecule: CC12CCC3c4ccc(O)cc4CCC3C1CCC2O (stereo not drawn) [estradiol, 17-β estradiol]
- maze performance (working memory) versus Ctl group ([2]; at both 1 and 3 months of treatment, after 12 months of estrogen-deficiency): significantly better
- performance of the radial arm maze tests [7]: dosedependent improvement

Molecule: Lecithin
- Effects on Cognitive Function [1]: Unchanged/Slight Improvement

Molecule: Phosphatidylserine
- Effects on Cognitive Function [1]: Slight Improvement

Reference: US6524616B1, “COMPOSITIONS AND METHODS FOR TREATING OR PREVENTING NEURODEGENERATION AND COGNITIVE DECLINE AND DYSFUNCTION ASSOCIATED WITH ALZHEIMER'S DISEASE, AGING, OTHER DEMENTIA RELATED DISORDERS AND ESTROGEN DEFICIENCY RELATED CONDITIONS” (priority 1999, dated 2003)
